# Columns and labels:
# [1] = tested on: MCF7 (breast adenocarcinoma, Rb-positive); experiment: Cellular proliferation assay (CellTiter-Glo), MCF7; format: cell-based
# Procedure: The MCF7 cells were seeded in Costar (Tewksbury, Mass.) 3903 96 well tissue culture treated white walled/clear bottom plates. A nine point dose response dilution series from 10 uM to 1 nM was performed and cell viability was determined after six days of compound treatment as indicated using the CellTiter-Glo® luminescent cell viability assay (CTG; Promega, Madison, Wis., United States of America) following the manufacturer's recommendations. Plates were read on a BioTek (Winooski, Vt.) Syngergy2 multi-mode plate reader. The Relative Light Units (RLU) were plotted as a result of variable molar concentration and data was analyzed using Graphpad (LaJolla, Calif.) Prism 5 statistical software to determine the EC50 for each compound.
# (§1) Cellular proliferation assays were conducted using the following cancer cell lines: MCF7 (breast adenocarcinoma—Rb-positive), ZR-75-1 (breast ductal carcinoma—Rb-positive), H69 (human small cell lung cancer—Rb-negative) cells, or A2058 (human metastatic melanoma cells—Rb-negative). These cells were seeded in Costar (Tewksbury, Mass.) […] 96 well tissue culture treated white walled/clear bottom plates. Cells were treated with the compounds of Table 1 as nine point dose response dilution series from 10 uM to 1 nM. Cells were exposed to compounds and then cell viability was determined after either four (H69) or six (MCF7, ZR75-1, A2058) days as indicated using the CellTiter-Glo® luminescent cell viability assay (CTG; Promega, Madison, Wis., United States of America) following the manufacturer's recommendations. Plates were read on BioTek (Winooski, Vt.) Syngergy2 multi-mode plate reader. The Relative Light Units (RLU) were plotted as a result of variable molar concentration and data was analyzed using Graphpad (LaJolla, Calif.) Prism 5 statistical software to determine the EC50 for each compound.
# [2] = tested on: ZR-75-1 (breast ductal carcinoma, Rb-positive); experiment: Cellular proliferation assay (CellTiter-Glo), ZR-75-1; format: cell-based
# Procedure: as §1
# [3] = Mouse pharmacokinetics (oral gavage / intravenous); format: in vivo, mice; conditions: plasma, 30 mg/kg, read-out: F (oral bioavailability)
# Procedure: Blood samples were taken at 0, 0.25, 0.5, 1.0, 2.0, 4.0, and 8.0 hours post dosing and the plasma concentrations were determined by HPLC.
# HSPCs (LKS+) = experiment: Bone marrow HSPC proliferation by EdU incorporation and flow cytometry; format: in vivo; conditions: 150 mg/kg oral gavage, mice
# Procedure: . JCNI 2012; 104(6):476-487 (FIG. 2A). […].
# Mice were then sacrificed at the indicated times (0, 12, 24, 36, or 48 hours following compound administration), and bone marrow was harvested (n=3 mice per time point), as previously described (Johnson et al. J. Clin. Invest. (2010) 120(7), 2528-2536). Four hours before the bone marrow was harvested, mice were treated with 100 μg of EdU by intraperitoneal injection (Invitrogen). Bone marrow mononuclear cells were harvested and immunophenotyped using previously described methods and percent EdU positive cells were then determined (Johnson et al. J. Clin. Invest. (2010) 120(7), 2528-2536). In brief, HSPCs were identified by expression of lineage markers (Lin−), Sca1 (S+), and c-Kit (K+).
# Four hours before animals were sacrificed and the bone marrow was harvested, mice were treated with 100 μg of EdU by intraperitoneal injection. Three mice per group were sacrificed at 12 hours and the remaining three animals per group were sacrificed at 24 hours. Results are shown in FIG. 5A as the ratio of EdU positive cells for treated animals at 12 or 24 hour time points compared to control.
# Further experiments were completed with Compound T examining dose response and longer periods of compound treatment. […] […].
# Both compounds were administered at 150 mg/kg by oral gavage. One hour prior to harvesting bone marrow, EdU was IP injected to label cycling cells. Bone marrow was harvested at 12, 24, 36, and 48 hours after compound treatment and the percentage of EdU positive HSPC cells was determined at each time point.
# CDK4/CyclinD1 = CDK4/CyclinD1 (Homo sapiens (Human), UniProt P11802); experiment: CDK4/cyclinD1 kinase assay (Nanosyn, microfluidic Caliper platform); format: biochemical; conditions: ATP at Km (200 uM); read-out: CDK4/CycD1 IC50
# Procedure: (§2) Selected compounds disclosed herein were tested in CDK4/cyclinD1, CDK2/CycA and CDK2/cyclinE kinase assays by Nanosyn (Santa Clara, Calif.) to determine their inhibitory effect on these CDKs. The assays were performed using microfluidic kinase detection technology (Caliper Assay Platform). The compounds were tested in 12-point dose-response format in singlicate at Km for ATP. Phosphoacceptor substrate peptide concentration used was 1 μM for all assays and Staurosporine was used as the reference compound for all assays. Specifics of each assay are as described below:
# CDK4/CyclinD1: Enzyme concentration: 1 nM; ATP concentration: 200 μM; Incubation time: 10 hr.
# CDK2/CyclinE = CDK2/CyclinE (Homo sapiens (Human), UniProt P24941); experiment: CDK2/cyclinE kinase assay (Nanosyn, microfluidic Caliper platform); format: biochemical
# Procedure: as §2, with “assays.” for “assays. Specifics of each assay are as described below:”
# CDK2/CyclinA = CDK2/CyclinA (Homo sapiens (Human), UniProt P24941); experiment: CDK2/CycA kinase assay (Nanosyn, microfluidic Caliper platform); format: biochemical
# Procedure: as §2
# CDK2/CyclinA: Enzyme concentration: 0.2 nM; ATP concentration: 50 μM; Incubation time: 3 hr.
# [4] = tested on: MMTV-c-neu (Rb-positive) tumors; experiment: MMTV-c-neu HER2-driven (Rb-positive) luminal breast cancer mouse model; format: in vivo, mice
# Excerpt: A HER2-driven model (Rb-positive) of breast cancer (Muller W J, Sinn E, Pattengale P K, Wallace R, Leder P. Single-step induction of mammary adenocarcinoma in transgenic mice bearing the activated c-neu oncogene. Cell 1988; 54: 105-15), that expresses c-neu (the mouse ortholog of human HER2) driven by the MMTV promoter was used in the following example. This model was chosen because previous studies in murine (Yu Q, Geng Y, Sicinski P. Specific protection against breast cancers by cyclin D1 ablation. Nature 2001; 411: 1017-21; Landis M W, Pawlyk B S, Li T, Sicinski P, Hinds P W. Cyclin D1-dependent kinase activity in murine development and mammary tumorigenesis. Cancer Cell 2006; 9: 13-22; Reddy H K, Mettus R V, Rane S G, Grana X, Litvin J, Reddy E P. Cyclin-dependent kinase 4 expression is essential for neu-induced breast tumorigenesis. Cancer Res 2005; 65: 10174-8; Yu Q, Sicinska E, Geng Y, Ahnstrom M, Zagozdzon A, Kong Y, et al. Requirement for CDK4 kinase function in breast cancer. Cancer Cell 2006; 9: 23-32.) and human HER2-positive breast cancer (An H X, Beckmann M W, Reifenberger G, Bender H G, Niederacher D. Gene amplification and overexpression of CDK4 in sporadic breast carcinomas is associated with high tumor cell proliferation. Am J Pathol 1999; 154: 113-8; Samady L, Dennis J, Budhram-Mahadeo V, Latchman DS. Activation of CDK4 gene expression in human breast cancer cells by the Brn-3b POU family transcription factor. Cancer Biol Ther 2004; 3: 317-23; Takano Y, Takenaka H, Kato Y, Masuda M, Mikami T, Saegusa M, et al. Cyclin D1 overexpression in invasive breast cancers: correlation with cyclin-dependent kinase 4 and oestrogen receptor overexpression, and lack of correlation with mitotic activity.
# MMTV-neu mice were generated and observed post-lactation, with tumors observed with a median latency of approximately 25 weeks. Mice were enrolled in therapy studies when tumors reached a standard size (50-60 mm3) that permitted easy serial assessment. […] Tumor volumes were calculated by the formula, Volume=[(width)^2×length]/2. Tumor-bearing mice were euthanized at the indicated times due to predefined morbidity, tumor ulceration, or a tumor size of more than 1.5 cm in diameter.
# Tumors were serially assessed weekly using caliper measurements. Therapeutic intervention began once tumors reached 40-64 mm^3. Tumor volume was calculated using the formula […]. All three compounds were administered orally via medicated diets (100 mg/kg/d). Medicated diets were administered for 28 consecutive days and then stopped. RECIST criteria were used to assess objective response rates.
# CDK4/CyclinD1, sequence (P11802 whole entry, species assumed): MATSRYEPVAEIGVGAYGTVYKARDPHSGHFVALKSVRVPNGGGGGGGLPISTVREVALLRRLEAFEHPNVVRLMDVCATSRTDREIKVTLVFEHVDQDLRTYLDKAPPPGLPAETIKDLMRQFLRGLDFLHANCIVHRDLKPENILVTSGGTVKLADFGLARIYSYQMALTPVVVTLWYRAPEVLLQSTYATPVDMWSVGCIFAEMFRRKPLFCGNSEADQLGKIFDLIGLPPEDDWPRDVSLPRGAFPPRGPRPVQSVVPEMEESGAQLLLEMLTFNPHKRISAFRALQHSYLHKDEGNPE
# CDK4/CyclinD1, sequence (P24385 whole entry partner, species assumed): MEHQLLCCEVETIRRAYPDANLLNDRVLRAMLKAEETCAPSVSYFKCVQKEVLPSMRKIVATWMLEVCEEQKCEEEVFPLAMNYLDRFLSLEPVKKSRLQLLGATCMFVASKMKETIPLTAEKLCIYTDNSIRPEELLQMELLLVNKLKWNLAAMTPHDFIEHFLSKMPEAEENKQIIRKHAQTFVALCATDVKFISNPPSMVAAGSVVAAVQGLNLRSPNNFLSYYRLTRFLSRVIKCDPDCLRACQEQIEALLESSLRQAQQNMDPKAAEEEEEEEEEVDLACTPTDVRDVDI
smiles,measurement,setting,value
O=C1NCC2(CCCCC2)n2c1cc1cnc(Nc3ccc(N4CCNCC4)cn3)nc12 [Q],inhibition of cellular proliferation of MCF-7 cells (FIGS. 21-24),[1],significant inhibition of cellular proliferation
same,inhibition of cellular proliferation of ZR75-1 cells (FIGS. 25-28),[2],significant inhibition of cellular proliferation
same,bioavailability,[3],2%
same,EdU incorporation into HSPCs at 12 and 24 hours (FIG. 5A),HSPCs (LKS+),some reduction at 12 hours and started to return to baseline at 24 hours
CC(C)(O)CN1CCN(c2ccc(Nc3ncc4cc5n(c4n3)C3(CCCC3)CNC5=O)nc2)CC1 [EEE],IC50,CDK4/CyclinD1,0.2 nM
CCC(C)[C@@H]1CNC(=O)c2cc3cnc(Nc4ccc(N5CCNCC5)cn4)nc3n21 (some centres unmarked) [VVV],Fold Selectivity (CDK2/CycE/CDK4),CDK2/CyclinE,589
CC1CN(c2ccc(Nc3ncc4cc5n(c4n3)C3(CCCCC3)CNC5=O)nc2)C[C@@H](C)N1CC1CC1 (some centres unmarked) [OO],inhibition of cellular proliferation of MCF-7 cells (FIGS. 21-24),[1],significant inhibition of cellular proliferation
same,inhibition of cellular proliferation of ZR75-1 cells (FIGS. 25-28),[2],significant inhibition of cellular proliferation
CC1CN(c2ccc(Nc3ncc4cc5n(c4n3)C3(CCCC3)CNC5=O)nc2)CCN1CCC(C)(C)C (centres unmarked) [PPP],IC50,CDK4/CyclinD1,0.8 nM
same,Fold Selectivity (CDK2/CycE/CDK4),CDK2/CyclinE,21263
same,IC50,"CDK2/CyclinE; ATP at Km (100 uM), read-out: CDK2/CycE IC50",16500 nM
same,Fold Selectivity (CDK2/CycA/CDK4),CDK2/CyclinA,3402
same,IC50,CDK2/CyclinA; ATP at Km (50 uM),2640 nM
CC1(C)CN(c2ccc(Nc3ncc4cc5n(c4n3)C3(CCCCC3)CNC5=O)nc2)CCN1CC1CC1 [H],inhibition of cellular proliferation of MCF-7 cells (FIGS. 21-24),[1],significant inhibition of cellular proliferation
same,inhibition of cellular proliferation of ZR75-1 cells (FIGS. 25-28),[2],significant inhibition of cellular proliferation
C[C@@H]1CN(c2ccc(Nc3ncc4cc5n(c4n3)C3(CCCCC3)CNC5=O)nc2)C[C@H](C)N1C[C@@H](C)O [MM],inhibition of cellular proliferation of MCF-7 cells (FIGS. 21-24),[1],significant inhibition of cellular proliferation
same,inhibition of cellular proliferation of ZR75-1 cells (FIGS. 25-28),[2],significant inhibition of cellular proliferation
O=C1NCC2(CCCCC2)n2c1cc1cnc(Nc3ccc(N4CCC(N5CCOCC5)CC4)cn3)nc12 [U],inhibition of cellular proliferation of MCF-7 cells (FIGS. 21-24),[1],significant inhibition of cellular proliferation
same,inhibition of cellular proliferation of ZR75-1 cells (FIGS. 25-28),[2],significant inhibition of cellular proliferation
same,bioavailability,[3],67%
same,tumor volume during a 28 day course of therapy,[4]; 100 mg/kg/d in chow,marked decrease in tumor volume
same,objective response rate,"[4]; 100 mg/kg/day medicated diet, 28 days, RECIST criteria",100%
CN1CCN(C(=O)c2ccc(Nc3ncc4cc5n(c4n3)C3(CCCC3)CNC5=O)nc2)CC1 [BBB],EC50,"[1]; Homo sapiens, MCF7, 144 h, six days",123 nM

# Source: US9527857B2, “HSPC-sparing treatments for RB-positive abnormal cellular proliferation” (G1 Therapeutics, Inc., priority 2013, dated 2016)
